What was measured:
human cancer cell lines = experiment: Cytotoxic activity of taurultam in human cancer cell lines; format: cell-based
Protocol: The cytotoxic activity of taurultam was evaluated in vitro using the same human cancer cell lines as described above. […] The data also indicate that the cytotoxic effect is directly proportionate to the number of methylol molecules liberated per molecule of methylol-containing compound

[1] = tested on: MDR-transfected glioblastoma cells; experiment: Cytotoxicity in MDR-transfected glioblastoma cells; details: transfected vs untransfected glioblastoma cells
Excerpt: The neoplastic cell lines used in the survey were standard tumor cell lines, e.g., PA1 human ovarian cell line, SKOV3 human ovarian cell line, HT29 human colon tumor cell line, DU145 human prostate tumor cell line, U251 human glioblastoma cell line, U251-MDR human glioblastoma cell line transfected with DNA encoding MDR, T98G human glioblastoma cell line, SP-1 human leukemia cell line, and Daudi human leukemia cell line.
Glioblastoma cells were transfected with a gene encoding multiple drug resistance (MDR).

Q: Which results are given for `O=S1(=O)CCNCN1` [taurultam]?
A: induction of apoptotic death (human cancer cell lines; cancer cells vs normal control cells): induced apoptotic death of cancer cells but not normal control cells; cytotoxic activity relative to the activity observed with taurolidine (human cancer cell lines; same human cancer cell lines as for taurolidine): approximately 75%

Q: How did the “resistance of MDR-transfected cells” value [1] turn out when `COc1cccc2c1C(=O)c1c(O)c3c(c(O)c1C2=O)C[C@@](O)(C(=O)CO)C[C@@H]3O[C@H]1C[C@H](N)[C@H](O)[C@H](C)O1` [adriamycin] was run?
A: 100-1000 times

From patent publication US6964959B2, “Use of a methylol-containing compound to treat tumors” (Carter Wallace, Inc., priority 1999, dated 2005)
